≈ marks a conversion by molar mass, not a printed value.
Legend:
Assay in all cases: In vitro antifungal activity, microbroth dilution MIC
Format in all cases: cell-based
[1] = tested on: Aspergillus furnigatus B. 19119; conditions: for Minimal inhibitory concentration(MIC), A furnigatus B. 19119: RPMI-1640, 35° C., no growth observed; for Minimal inhibitory concentration (MIC): A furnigatus B. 19119, RPMI-1640, 35° C.
Summary of the method: (§1)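 Broth microdilution adapted from NCCLS M27, in RPMI-1640 with 0.165 M MOPS, pH 7.0. Yeast or mould inoculum at 2×10^3 CFU/ml was mixed 1:1 with DMSO-derived compound solutions (200 to 0.10 μg/ml before mixing) and incubated at 35 °C for 4 to 48 h. MIC was the concentration showing no growth.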

Candida albicans C1-2 = conditions: 4 to 48 hours; for Minimal inhibitory concentration(MIC), C. albicans C1-2: RPMI-1640, 35° C., no growth observed; for Minimal inhibitory concentration (MIC): C. albicans C1-2, RPMI-1640, 35° C.
Summary of the method: as §1

[2] = tested on: Candida albicans IFO. 1385; conditions: 4 to 48 hours; for Minimal inhibitory concentration(MIC), C. albicans IFO. 1385: RPMI-1640, 35° C., no growth observed; for Minimal inhibitory concentration (MIC): C. albicans IFO. 1385, RPMI-1640, 35° C.
Summary of the method: as §1

[3] = tested on: Torulopsis glabrata B. 16205; conditions: 4 to 48 hours; for Minimal inhibitory concentration(MIC), T. glabrata B. 16205: RPMI-1640, 35° C., no growth observed; for Minimal inhibitory concentration (MIC): T. glabrata B. 16205, RPMI-1640, 35° C.
Summary of the method: as §1

[4] = tested on: Candida tropicalis A. 13803; conditions: 4 to 48 hours; for Minimal inhibitory concentration(MIC), C. tropicalis A. 13803: RPMI-1640, 35° C., no growth observed; for Minimal inhibitory concentration (MIC): C. tropicalis A. 13803, RPMI-1640, 35° C.
Summary of the method: as §1

Candida krusei K. 11655 = conditions: 4 to 48 hours; for Minimal inhibitory concentration(MIC), C. krusei K. 11655: RPMI-1640, 35° C., no growth observed; for Minimal inhibitory concentration (MIC): C. krusei K. 11655, RPMI-1640, 35° C.
Summary of the method: as §1

[5] = tested on: Candida pseudotropicalis K. 11658; conditions: 4 to 48 hours; for Minimal inhibitory concentration(MIC), C. pseudotropicalis K. 11658: RPMI-1640, 35° C., no growth observed; for Minimal inhibitory concentration (MIC): C. pseudotropicalis K. 11658, RPMI-1640, 35° C.
Summary of the method: as §1

[6] = tested on: Cryptococcus neoformans A. 34144; conditions: for Minimal inhibitory concentration(MIC), Cry. neoformans A. 34144: RPMI-1640, 35° C., no growth observed; for Minimal inhibitory concentration (MIC): Cry. neoformans A. 34144, RPMI-1640, 35° C.
Summary of the method: as §1

[7] = tested on: Cryptococcus neoformans IFM. 40092; conditions: for Minimal inhibitory concentration(MIC), Cry. neoformans IFM. 40092: RPMI-1640, 35° C., no growth observed; for Minimal inhibitory concentration (MIC): Cry. neoformans IFM. 40092, RPMI-1640, 35° C.
Summary of the method: as §1

[8] = tested on: Trichophyton mentagrophytes B. 32663; conditions: for Minimal inhibitory concentration(MIC), T. mentagrophytes B. 32663: RPMI-1640, 35° C., no growth observed; for Minimal inhibitory concentration (MIC): T. mentagrophytes B. 32663, RPMI-1640, 35° C.
Summary of the method: as §1

[9] = tested on: Aspergillus niger A. 16404; conditions: for Minimal inhibitory concentration(MIC), A. niger A. 16404: RPMI-1640, 35° C., no growth observed; for Minimal inhibitory concentration (MIC): A. niger A. 16404, RPMI-1640, 35° C.
Summary of the method: as §1

[10] = tested on: Candida albicans A. 10231; conditions: 4 to 48 hours; for Minimal inhibitory concentration(MIC), C. albicans A. 10231: RPMI-1640, 35° C., no growth observed; for Minimal inhibitory concentration (MIC): C. albicans A. 10231, RPMI-1640, 35° C.
Summary of the method: as §1

[11] = tested on: Cryptococcus neoformans B. 42419; conditions: 4 to 48 hours; for Minimal inhibitory concentration(MIC), Cry. neoformans B. 42419: RPMI-1640, 35° C., no growth observed; for Minimal inhibitory concentration (MIC): Cry. neoformans B. 42419, RPMI-1640, 35° C.
Summary of the method: as §1

[12] = tested on: Trichophyton mentagrophytes A. 9129; conditions: for Minimal inhibitory concentration(MIC), T. mentagrophytes A. 9129: RPMI-1640, 35° C., no growth observed; for Minimal inhibitory concentration (MIC): T. mentagrophytes A. 9129, RPMI-1640, 35° C.
Summary of the method: as §1

[13] = tested on: Candida parapsitosis A. 7330; conditions: 4 to 48 hours; for Minimal inhibitory concentration(MIC), C. parapsitosis A. 7330: RPMI-1640, 35° C., no growth observed; for Minimal inhibitory concentration (MIC): C. parapsitosis A. 7330, RPMI-1640, 35° C.
Summary of the method: as §1

Structure (SMILES) | Minimal inhibitory concentration(MIC), A furnigatus B. 19119 ([1]; 4 to 48 hours) | Minimal inhibitory concentration(MIC), C. albicans C1-2 (Candida albicans C1-2) | Minimal inhibitory concentration(MIC), C. albicans IFO. 1385 [2] | Minimal inhibitory concentration(MIC), T. glabrata B. 16205 [3] | Minimal inhibitory concentration(MIC), C. tropicalis A. 13803 [4] | Minimal inhibitory concentration(MIC), C. krusei K. 11655 (Candida krusei K. 11655) | Minimal inhibitory concentration(MIC), C. pseudotropicalis K. 11658 [5] | Minimal inhibitory concentration(MIC), Cry. neoformans A. 34144 ([6]; 4 to 48 hours) | Minimal inhibitory concentration(MIC), Cry. neoformans IFM. 40092 ([7]; 4 to 48 hours) | Minimal inhibitory concentration(MIC), T. mentagrophytes B. 32663 ([8]; 4 to 48 hours) | Minimal inhibitory concentration(MIC), A. niger A. 16404 ([9]; 4 to 48 hours) | Minimal inhibitory concentration(MIC), C. albicans A. 10231 [10] | Minimal inhibitory concentration(MIC), Cry. neoformans B. 42419 [11] | Minimal inhibitory concentration(MIC), T. mentagrophytes A. 9129 ([12]; 4 to 48 hours) | Minimal inhibitory concentration(MIC), C. parapsitosis A. 7330 [13] | Minimal inhibitory concentration (MIC) ([1]; 4 to 48 hours) | Minimal inhibitory concentration (MIC) (Candida albicans C1-2) | Minimal inhibitory concentration (MIC) [2] | Minimal inhibitory concentration (MIC) [3] | Minimal inhibitory concentration (MIC) [10] | also measured
Cc1cccc(C(=C(F)OCC2COC(Cn3ccnc3)(c3ccc(F)cc3F)O2)C(F)(F)F)c1 (mixture of isomers) [Ex. 53] | – | – | – | – | – | – | – | – | – | – | – | – | – | – | – | 3.13 µg/mL | 25.0 µg/mL | 0.78 µg/mL | 6.25 µg/mL | 12.5 µg/mL | Minimal inhibitory concentration (MIC) [4]: 100 µg/mL; Minimal inhibitory concentration (MIC) (Candida krusei K. 11655): >100 µg/mL; Minimal inhibitory concentration (MIC) [5]: >100 µg/mL; Minimal inhibitory concentration (MIC) ([6]; 4 to 48 hours): 1.56 µg/mL; Minimal inhibitory concentration (MIC) ([7]; 4 to 48 hours): ≦10.10 μg/ml; Minimal inhibitory concentration (MIC) ([8]; 4 to 48 hours): 1.56 µg/mL; Minimal inhibitory concentration (MIC) ([9]; 4 to 48 hours): 25.0 µg/mL; Minimal inhibitory concentration (MIC) [11]: 0.78 µg/mL; Minimal inhibitory concentration (MIC) ([12]; 4 to 48 hours): 3.13 µg/mL; Minimal inhibitory concentration (MIC) [13]: >100 µg/mL
FC(OCC1COC(Cn2cncn2)(c2ccc(Cl)cc2Cl)O1)=C(c1ccccc1)C(F)(F)F (mixture of isomers) [Ex. 79] | >100 µg/mL | – | >100 µg/mL | >100 µg/mL | >100 µg/mL | >100 µg/mL | >100 µg/mL | >100 µg/mL | 1.56 µg/mL | >100 µg/mL | >100 µg/mL | – | >100 µg/mL | >100 µg/mL | >100 µg/mL | – | >100 µg/mL | – | – | >100 µg/mL | –
FC(=Cc1ccc(F)cc1)Oc1ccc(OCC2COC(Cn3ccnc3)(c3ccc(Cl)cc3Cl)O2)cc1 (mixture of isomers) [Ex. 92] | >100 µg/mL | 50.0 µg/mL | 3.13 µg/mL | 50.0 µg/mL | >100 µg/mL | >100 µg/mL | >100 µg/mL | 3.13 µg/mL | 0.78 µg/mL | 12.5 µg/mL | >100 µg/mL | 25.0 µg/mL | 3.13 µg/mL | 25.0 µg/mL | >100 µg/mL | – | – | – | – | – | –
Cc1cc(C)cc(C=C(F)OCC2COC(Cn3ccnc3)(c3ccc(Cl)cc3Cl)O2)c1 (stereo not drawn) [Ex. 6] | – | – | – | – | – | – | – | – | – | – | – | – | – | – | – | 6.25 µg/mL (≈ 13.1 µM) | 12.5 µg/mL (≈ 26.2 µM) | 0.78 µg/mL (≈ 1.63 µM) | 6.25 µg/mL (≈ 13.1 µM) | 6.25 µg/mL (≈ 13.1 µM) | Minimal inhibitory concentration (MIC) [4]: 12.5 µg/mL (≈ 26.2 µM); Minimal inhibitory concentration (MIC) (Candida krusei K. 11655): 12.5 µg/mL (≈ 26.2 µM); Minimal inhibitory concentration (MIC) [5]: 12.5 µg/mL (≈ 26.2 µM); Minimal inhibitory concentration (MIC) ([6]; 4 to 48 hours): 3.13 µg/mL (≈ 6.56 µM); Minimal inhibitory concentration (MIC) ([7]; 4 to 48 hours): 1.56 µg/mL (≈ 3.27 µM); Minimal inhibitory concentration (MIC) ([8]; 4 to 48 hours): 3.13 µg/mL (≈ 6.56 µM); Minimal inhibitory concentration (MIC) ([9]; 4 to 48 hours): 6.25 µg/mL (≈ 13.1 µM); Minimal inhibitory concentration (MIC) [11]: 3.13 µg/mL (≈ 6.56 µM); Minimal inhibitory concentration (MIC) ([12]; 4 to 48 hours): 3.13 µg/mL (≈ 6.56 µM); Minimal inhibitory concentration (MIC) [13]: 12.5 µg/mL (≈ 26.2 µM)

Second part, led by results:

Minimal inhibitory concentration(MIC), A furnigatus B. 19119 ([1]; 4 to 48 hours) | Minimal inhibitory concentration(MIC), C. albicans C1-2 (Candida albicans C1-2) | Minimal inhibitory concentration(MIC), C. albicans IFO. 1385 [2] | Minimal inhibitory concentration(MIC), T. glabrata B. 16205 [3] | Minimal inhibitory concentration(MIC), C. tropicalis A. 13803 [4] | Minimal inhibitory concentration(MIC), C. krusei K. 11655 (Candida krusei K. 11655) | Minimal inhibitory concentration(MIC), C. pseudotropicalis K. 11658 [5] | Minimal inhibitory concentration(MIC), Cry. neoformans A. 34144 ([6]; 4 to 48 hours) | Minimal inhibitory concentration(MIC), Cry. neoformans IFM. 40092 ([7]; 4 to 48 hours) | Minimal inhibitory concentration(MIC), T. mentagrophytes B. 32663 ([8]; 4 to 48 hours) | Minimal inhibitory concentration(MIC), A. niger A. 16404 ([9]; 4 to 48 hours) | Minimal inhibitory concentration(MIC), C. albicans A. 10231 [10] | Minimal inhibitory concentration(MIC), Cry. neoformans B. 42419 [11] | Minimal inhibitory concentration(MIC), T. mentagrophytes A. 9129 ([12]; 4 to 48 hours) | Minimal inhibitory concentration(MIC), C. parapsitosis A. 7330 [13] | Minimal inhibitory concentration (MIC) ([1]; 4 to 48 hours) | Minimal inhibitory concentration (MIC) (Candida albicans C1-2) | Minimal inhibitory concentration (MIC) [2] | Minimal inhibitory concentration (MIC) [3] | Minimal inhibitory concentration (MIC) [10] | Structure (SMILES) | also measured
>100 µg/mL | 100 µg/mL | 6.25 µg/mL | >100 µg/mL | >100 µg/mL | >100 µg/mL | >100 µg/mL | 3.13 µg/mL | 0.78 µg/mL | 12.5 µg/mL | >100 µg/mL | >100 µg/mL | 3.13 µg/mL | 50.0 µg/mL | >100 µg/mL | – | – | – | – | – | CCc1ccc(C(=C(F)Oc2ccc(OCC3COC(Cn4ccnc4)(c4ccc(F)cc4F)O3)cc2)C(F)(F)F)cc1 (mixture of isomers) [Ex. 108] | –
– | >100 µg/mL | 0.78 µg/mL | 100 µg/mL | >100 µg/mL | 0.78 µg/mL | 0.39 µg/mL | – | – | – | – | >100 µg/mL | 0.78 µg/mL | – | 1.56 µg/mL | – | – | – | – | – | FC(=C(c1ccc(Oc2ccccc2)cc1)C(F)(F)F)N1CCN(c2ccc(OCC3COC(Cn4ccnc4)(c4ccc(F)cc4F)O3)cc2)CC1 (mixture of isomers) [Ex. 146] | Minimal inhibitory concentration(MIC), A furnigatus B. 19119 [1]: 100 µg/mL; Minimal inhibitory concentration(MIC), Cry. neoformans A. 34144 [6]: 1.56 µg/mL; Minimal inhibitory concentration(MIC), Cry. neoformans IFM. 40092 [7]: 0.78 µg/mL; Minimal inhibitory concentration(MIC), T. mentagrophytes B. 32663 [8]: 1.56 µg/mL; Minimal inhibitory concentration(MIC), A. niger A. 16404 [9]: 100 µg/mL; Minimal inhibitory concentration(MIC), T. mentagrophytes A. 9129 [12]: 12.5 µg/mL

Reference: patent US6376497B1, “Antifungal azole derivatives having a fluorinated vinyl group and process for preparing same” (Korea Research Institute of Chemical Technology, priority 1999, dated 2002)
